22 molecules from patent publication US4585861A, “1,2,4-triazine derivatives” (Eli Lilly and Company, priority 1985, dated 1986) can be followed below.

SMILES strings stand for the structures. Where a name gives a salt, the structure may show the parent alone. Some results are limits rather than exact numbers.

Assay [1] can be described thus: Mouse Writhing Inhibition Assay. In kind it is in vivo, Cox standard strain albino male mice. On the procedure: Writhing, which is characterized by contraction of the abdominal musculature, extension of the hindlegs, and rotation of the trunk, was induced in Cox standard strain albino male mice. The mice, weighing 18-24 grams, were fasted overnight and given the test compound by gavage in an acacia suspension (5%) 60 minutes before writhing was induced by the intraperitoneal administration of 55 mg./kg. of acetic acid (0.55 percent). Each treatment group consisted of 3 mice. The total number of writhes for the treatment group was determined during a 5-minute observation starting 5 minutes after acetic acid administration.
In general terms: In writhing tests, fewer writhes than in controls are read as antinociception.

A short description of assay [2]: Appetite Suppression Assay. The following applies: Mus musculus. The assay is classed as in vivo, Cox standard strain albino male mice. On the procedure:
In this test, groups of three Cox standard strain albino male mice were weighed (18-24 grams) and then fasted overnight (16-18 hours). The mice were reweighed and then given the test compound in a suspension of acacia (5%) by gavage. Thirty minutes after oral administration, the mice were allowed to eat freely for one hour. After the eating period, the mice were weighed once more. The percent of weight gained (from the time the mice were given the test compound to after the feeding period) compared to weight lost during the fast period was calculated. The non-drug treated control animals gained back 35-55% of the weight lost on fasting. Any compound at the dose level tested which produced a weight gain of less than 10% was considered to be active. The results in Table 2 report the lowest dose level in which there was activity for each compound tested. Dextroamphetamine sulfate is active in this system at about 2.5 mg./kg.

A short description of assay [3]: Electroshock Induced Convulsion Inhibition Assay. The assay is classed as in vivo, Cox standard strain albino male mice. To be noted: Mus musculus. Here is the method: (§1) In this assay, a compound to be tested was suspended in acacia (5%) and administered by gavage to each of three Cox standard strain albino male mice (18-24 grams) at the dose level being investigated. One hour after the oral administration, a water solution of metrazole (pentylenetetrazole) was administered by the intraperitoneal route to each mouse at a dose of 110 mg./kg. […] A score of 0 was assigned to a mouse not showing any signs of convulsant activity; a score of 1 was given to mice developing clonic convulsions; a score of 2 was given to mice showing flexor tonic convulsions; a score of 3 was given to mice showing extensor tonic convulsions; and a score of 4 was given to mice that died within the one hour. The scores of the three mice were totalled for each compound and dose level. The scores can range from 0 to 12; a score of 6 or less was interpreted as indicative of an active compound at that dose level. Values reported in Table 2 below are the minimum oral dose levels (mg./kg.) where activity as defined above was observed.
The drug administration and test conditions used in this assay were similar to those used in the metrazole induced convulsion inhibition assay above except that a 0.1 second, 50 milliampere electroshock through corneal electrodes induced the convulsion instead of metrazole. The animals were examined and evaluated immediately after the electroshock and were scored as before. The results in Table 2 are expressed as the lowest dose of each compound tested which was active as previously defined. For comparison, 18 milliamperes was usually sufficient to produce extensor tonic convulsions in about half of the control animals; at 50 milliamperes, almost all control animals died. Diazepam was active at about 1 mg./kg.

A short description of assay [4]: Metrazole Induced Convulsion Inhibition Assay. In kind it is in vivo, Cox standard strain albino male mice. To be noted: Mus musculus. On the procedure: as §1
The target of a further assay is GABA receptor. Nature of the assay: In vitro activation of GABA binding ([3H]GABA, Triton X-100 treated membrane protein). The following applies: average of one or more tests, read-out: SC50 GABA (nanomolar concentration producing a 50% increase in binding). On the procedure:
(§2) The novel compounds of this invention were examined for their in vitro ability to activate GABA and benzodiazepine (BZ) binding. To measure the effect of a compound on GABA binding, Triton X-100 (octylphenoxy polyethoxyethanol, Rohm and Haas Co.) treated membrane protein was incubated in the presence of the compound and [^3 H]GABA as detailed by Horng and Wong, J. Neurochemistry, 32 (5), 1379 (1979). To examine BZ binding, H-flunirazepam and the compounds were incubated with native membrane protein as reported by Wong, et al, Brain Res. Bull., 5 (Suppl. 2), 853 (1980). The results in Table 1 are the nanomolar concentrations of compounds (by Example No.) which produced a 50 percent increase (SC50) in GABA or BZ binding. Each result is the average of one or more tests.

The target of a further assay is benzodiazepine receptor. Nature of the assay: In vitro activation of benzodiazepine (BZ) binding (flunirazepam, native membrane protein). To be noted: average of one or more tests, read-out: SC50 BZ (nanomolar concentration producing a 50% increase in binding). On the procedure: as §2
Setting [5] is: oral gavage 60 min before acetic acid 55 mg./kg. i.p., active = less than ten writhes, read-out: Minimum active oral dose, Mouse Writhing.
Where [6] appears, read: oral, 0.1 second, 50 milliampere corneal electroshock, active = total score of 6 or less, read-out: Minimum active oral dose, Electro-Shock.
[7] abbreviates: oral gavage, 1 h before metrazole 110 mg./kg. i.p., active = total score of 6 or less (3 mice, range 0-12), read-out: Minimum active oral dose, Metrazole.
Where [8] appears, read: oral gavage 30 min before feeding, active = weight gain of less than 10% of weight lost on fasting, read-out: Minimum active oral dose, Appetite Suppression.

Regarding `CC(=O)Oc1ccccc1C(=O)O` [Aspirin, acetyl salicylic acid, reference compound], the minimal effective dose in assay [1] (po, read-out: dose showing activity, mouse writhing (reference)) is 200 mg/kg.

With `C[C@H](N)Cc1ccccc1` [Dextroamphetamine sulfate, reference compound], the minimal effective dose in assay [2] (po, read-out: dose showing activity, appetite suppression (reference)) is approximately 2.5 mg/kg.

For the molecule `CN1C(=O)CN=C(c2ccccc2)c2cc(Cl)ccc21` [Diazepam, reference compound], the minimal effective dose in assay [3] (po, read-out: dose showing activity, electroshock test (reference)) is approximately 1 mg/kg; in assay [4] (po, read-out: dose showing activity, metrazole test (reference)), approximately 1 mg/kg.

Turning to `Cc1ccc(-c2nnc(N3CCC(O)CC3)nc2-c2ccc(C)cc2)cc1` [Example 7, 1-[5,6-bis(4-methylphenyl)-1,2,4-triazin-3-yl]-4-piperidinol], the minimal effective dose in assay [1] (setting [5]) was 3.1 mg/kg; in assay [3] (setting [6]), less than 25 mg/kg; in assay [4] (setting [7]) it was 3.1 mg/kg; in assay [2] (setting [8]), 3.1 mg/kg. Besides, the EC50 on GABA receptor was found to be 900 nM; on benzodiazepine receptor, 700 nM.

Consider `CCc1ccc(-c2nnc(N3CCC(O)CC3)nc2-c2ccc(CC)cc2)cc1` [Example 8, 1-[5,6-bis(4-ethylphenyl)-1,2,4-triazin-3-yl]-4-piperidinol], for which the EC50 at GABA receptor was more than 10000 nM; on benzodiazepine receptor it was 3500 nM.

As for `Cc1ccccc1-c1nnc(N2CCC(O)CC2)nc1-c1ccccc1C` [Example 9, 1-[5,6-bis(2-methylphenyl)-1,2,4-triazin-3-yl]-4-piperidinol], the EC50 at GABA receptor and at benzodiazepine receptor was more than 10000 nM each time.

For `Cc1cccc(-c2nnc(N3CCC(O)CC3)nc2-c2cccc(C)c2)c1` [Example 10, 1-[5,6-bis(3-methylphenyl)-1,2,4-triazin-3-yl]-4-piperidinol], the EC50 at benzodiazepine receptor was more than 10000 nM.

For `OC1CCN(c2nnc(-c3ccc(Cl)cc3)c(-c3ccc(Cl)cc3)n2)CC1` [Example 11, 1-[5,6-bis(4-chlorophenyl)-1,2,4-triazin-3-yl]-4-piperidinol], the minimal effective dose in assay [1] (setting [5]) was more than 25 mg/kg; in assay [3] (setting [6]), more than 25 mg/kg; in assay [4] (setting [7]) it was 12.5 mg/kg; in assay [2] (setting [8]), 25 mg/kg.

Regarding `CC(=O)OC1CCN(c2nnc(-c3ccc(C)cc3)c(-c3ccc(C)cc3)n2)CC1` [Example 12, 1-[5,6-bis(4-methylphenyl)-1,2,4-triazin-3-yl]-4-piperidinol, acetate (ester)], the minimal effective dose in assay [1] (setting [5]) worked out at 12.5 mg/kg; in assay [3] (setting [6]), 25 mg/kg; in assay [4] (setting [7]) it was 6.25 mg/kg; in assay [2] (setting [8]), 12.5 mg/kg. In addition, the results for the EC50 at GABA receptor and at benzodiazepine receptor were 3.3 nM and 5.5 nM, respectively.

In the case of `CC(=O)OC1CCN(c2nnc(-c3ccc(Cl)cc3)c(-c3ccc(Cl)cc3)n2)CC1` [Example 13, 1-[5,6-bis[4-chlorophenyl]-1,2,4-triazin-3-yl]-4-piperidinol, acetate (ester)], the minimal effective dose in assay [1] (setting [5]) is more than 50 mg/kg; in assay [3] (setting [6]), more than 50 mg/kg; in assay [4] (setting [7]) it was 50 mg/kg; in assay [2] (setting [8]), more than 50 mg/kg. Further, the EC50 was found to be 15 nM at GABA receptor and 12 nM on benzodiazepine receptor.

On to `Cc1ccc(-c2nnc(N3CCC(OC(=O)C(C)(C)C)CC3)nc2-c2ccc(C)cc2)cc1` [Example 16, 1-[5,6-bis(4-methylphenyl)-1,2,4-triazin-3-yl]-4-piperidinol, pivaloate (ester)], for which the EC50 on GABA receptor turned out to be 110 nM; on benzodiazepine receptor it was 14 nM.

Take `Cc1ccc(-c2nnc(N3CCC(O)C3)nc2-c2ccc(C)cc2)cc1` (centres unmarked) [Example 18, 1-[5,6-bis(4-methylphenyl)-1,2,4-triazin-3-yl]-3-pyrrolidinol]: the minimal effective dose in assay [1] (setting [5]) is 200 mg/kg; in assay [3] (setting [6]), 200 mg/kg; in assay [4] (setting [7]), more than 200 mg/kg; in assay [2] (setting [8]), 12.5 mg/kg.

Consider `CC(=O)OC1CCN(c2nnc(-c3ccc(C)cc3)c(-c3ccc(C)cc3)n2)C1` (centres unmarked) [Example 19, 1-[5,6-bis(4-methylphenyl)-1,2,4-triazin-3-yl]-3-pyrrolidinol, acetate (ester)], for which the EC50 was found to be 43 nM at GABA receptor and 60 nM at benzodiazepine receptor.

For `Cc1ccc(-c2nnc(N3CCOCC3)nc2-c2ccc(C)cc2)cc1` [Example 22, 3-morpholino-5,6-bis(4-methylphenyl)-1,2,4-triazine], the EC50 was found to be 875 nM on GABA receptor and 1140 nM on benzodiazepine receptor.

Take `Cc1ccc(-c2nnc(N3CCC(C)CC3)nc2-c2ccc(C)cc2)cc1` [Example 25, 5,6-bis(4-methylphenyl)-3-(4-methyl-1-piperidinyl)-1,2,4-triazine]: the minimal effective dose in assay [1] (setting [5]) was more than 200 mg/kg; in assay [3] (setting [6]) it was more than 200 mg/kg; in assay [4] (setting [7]) it was more than 200 mg/kg; in assay [2] (setting [8]), 50 mg/kg.

As for `CCOC1CCN(c2nnc(-c3ccc(C)cc3)c(-c3ccc(C)cc3)n2)CC1` [Example 27, 3-(4-ethoxy-1-piperidinyl)-5,6-bis(4-methylphenyl)-1,2,4-triazine], the values for the EC50 on GABA receptor and at benzodiazepine receptor were 10 nM and 21 nM, respectively.

For the molecule `CNC(=O)OC1CCN(c2nnc(-c3ccc(C)cc3)c(-c3ccc(C)cc3)n2)CC1` [Example 30, 1-[5,6-bis(4-methylphenyl)-1,2,4-triazin-3-yl]-4-piperidinol, N-methyl carbamate (ester)], the EC50 worked out at 100 nM at GABA receptor and 24 nM on benzodiazepine receptor.

For `Cc1ccc(-c2nnc(N3CCC(OC(=O)N(C)C)CC3)nc2-c2ccc(C)cc2)cc1` [Example 31], the EC50 on GABA receptor is 1 nM; on benzodiazepine receptor, 3 nM.

Consider `Cc1ccc(-c2nnc(N3CCC(OC=O)CC3)nc2-c2ccc(C)cc2)cc1` [Example 34, 1-[5,6-bis(4-methylphenyl)-1,2,4-triazin-3-yl]-4-piperidinol, formate (ester)], for which the EC50 on GABA receptor amounted to 13 nM; on benzodiazepine receptor, 10 nM.

As to `Cc1ccc(-c2nnc(N3CCC(C(N)=O)CC3)nc2-c2ccc(C)cc2)cc1` [Example 36, 1-[5,6-bis(4-methylphenyl)-1,2,4-triazin-3-yl]-4-piperidinecarboxamide], the figures for the EC50 at GABA receptor and at benzodiazepine receptor were 800 nM and 8500 nM, respectively.

With `Cc1ccc(-c2nnc(N3CCC(CO)CC3)nc2-c2ccc(C)cc2)cc1` [Example 37, 1-[5,6-bis(4-methylphenyl)-1,2,4-triazin-3-yl]-4-piperidinemethanol], the EC50 at GABA receptor stood at 160 nM; on benzodiazepine receptor, 520 nM.

In the case of `Cc1ccc(-c2nnc(N3CCC(=NO)CC3)nc2-c2ccc(C)cc2)cc1` [Example 40, 1-[5,6-bis(4-methylphenyl)-1,2,4-triazin-3-yl]-4-piperidinone, oxime], the EC50 was found to be 1300 nM on GABA receptor and 1600 nM on benzodiazepine receptor.
